# Measurements: ChEMBL document CHEMBL5518172, “Discovery of hydroxamate as a promising scaffold dually inhibiting metallo- and serine-β-lactamases” (Eur J Med Chem, 2024)
# Activity calls are given as the source filed them. The calls are words filed in the database; no cut-off is given here.
# What was measured:
# [1] = test system: Bacteria; assay: Inhibition of recombinant serine beta lactamase OXA-48 (unknown origin) expressed in Escherichia coli BL21 (DE3) cells assessed as reduction in residual activity incubated for 120 min; settings: dose 0.3-5 µM
# [2] = test system: Escherichia coli; assay: Synergistic antibacterial activity against Escherichia coli BL21 (DE3) harboring NDM-1 assessed as fold decrease in meropenem MIC at 64 microg/ml measured after 16 hrs by CLSI protocol based broth microdilution method; type: functional; settings: dose 64 µg/ml
# [3] = target: Metallo-beta-lactamase type 2 (Bacteria) (UniProt C7C422); assay: Inhibition of recombinant NDM-1 (unknown origin) expressed in Escherichia coli BL21 (DE3) cells using meropenem as substrate at 20 uM by spectrometric analysis relative to control
# Sequence of Metallo-beta-lactamase type 2 (Bacteria) (C7C422 whole entry): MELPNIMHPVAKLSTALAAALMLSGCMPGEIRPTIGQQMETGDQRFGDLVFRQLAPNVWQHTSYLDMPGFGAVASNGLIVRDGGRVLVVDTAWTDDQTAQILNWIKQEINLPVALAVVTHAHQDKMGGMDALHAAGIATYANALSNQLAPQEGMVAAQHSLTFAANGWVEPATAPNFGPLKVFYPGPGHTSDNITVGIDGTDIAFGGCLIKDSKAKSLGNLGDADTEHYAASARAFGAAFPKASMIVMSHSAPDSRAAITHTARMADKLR
# [4] = test system: Escherichia coli; assay: Synergistic antibacterial activity against Escherichia coli clinical isolate 07 assessed as meropenem MIC at 64 microg/ml measured after 16 hrs by CLSI protocol based broth microdilution method (reference value: 128 microg/ml); type: functional; settings: dose 64 µg/ml
# [5] = test system: Bacteria; assay: Inhibition of recombinant serine beta lactamase OXA-48 (unknown origin) expressed in Escherichia coli BL21 (DE3) cells using cefazolin as substrate assessed as residual activity at 20 uM relative to control
# [6] = test system: Bacteria; assay: Inhibition of recombinant IMP-1 (unknown origin) expressed in Escherichia coli BL21 (DE3) cells assessed as reduction in residual activity incubated for 20 hrs; settings: dose 0.25-5 µM
# [7] = test system: Escherichia coli; assay: Synergistic antibacterial activity against Escherichia coli BL21 (DE3) harboring metallo-beta-lactamase IMP-1 assessed as reduction in meropenem MIC upto 256 microg/ml in presence of meropenem by microdilution checkerboard assay; type: functional, organism-based; settings: dose <= 256.0 µg/ml
# [8] = target: Metallo-beta-lactamase type 2 (Bacteria) (UniProt C7C422); assay: Inhibition of recombinant NDM-1 (unknown origin) expressed in Escherichia coli BL21 (DE3) cells using meropenem as substrate assessed as residual activity at 20 uM relative to control
# [9] = test system: Bacteria; assay: Inhibition of recombinant serine beta lactamase OXA-48 (unknown origin) expressed in Escherichia coli BL21 (DE3) cells assessed as maximal inhibition at 5 uM measured after 0.5 hrs
# [10] = test system: Bacteria; assay: Inhibition of recombinant serine beta lactamase OXA-48 (unknown origin) expressed in Escherichia coli BL21 (DE3) cells using cefazolin as substrate assessed as reduction in residual activity; settings: dose 0.075-20 µM
# [11] = test system: Bacteria; assay: Inhibition of recombinant IMP-1 (unknown origin) expressed in Escherichia coli BL21 (DE3) cells assessed as reduction in residual activity at 0.25 to 5 uM; settings: dose 0.25-5 µM, time 20.0 hrs, TDE = time-dependent effect
# [12] = test system: Escherichia coli; assay: Synergistic antibacterial activity against Escherichia coli clinical isolate 24 assessed as fold decrease in meropenem MIC at 64 microg/ml measured after 16 hrs by CLSI protocol based broth microdilution method; type: functional; settings: dose 64 µg/ml
# [13] = test system: Escherichia coli; assay: Synergistic antibacterial activity against Escherichia coli BL21 (DE3) harboring NDM-1 assessed as decrease in bacterial colony at 128 microg/ml incubated for 12 hrs in presence of meropenem by imaging analysis; type: functional, organism-based; settings: dose 128.0 µg/ml
# [14] = test system: Escherichia coli; assay: Synergistic antibacterial activity against Escherichia coli BL21 (DE3) harboring serine beta lactamase OXA-48 assessed as decrease in bacterial colony at 128 microg/ml incubated for 12 hrs in presence of meropenem by imaging analysis; type: functional, organism-based; settings: dose 128.0 µg/ml
# [15] = test system: Escherichia coli; assay: Synergistic antibacterial activity against Escherichia coli BL21 (DE3) harboring metallo-beta-lactamase IMP-1 assessed as meropenem MIC at 64 microg/ml measured after 16 hrs by CLSI protocol based broth microdilution method (reference value: 64 microg/ml); type: functional; settings: dose 64 µg/ml
# [16] = test system: Bacteria; assay: Inhibition of recombinant serine beta lactamase KPC-2 (unknown origin) expressed in Escherichia coli BL21 (DE3) cells using meropenem as substrate at 20 uM by spectrometric analysis relative to control
# [17] = test system: Bacteria; assay: Inhibition of recombinant metallo-beta-lactamase ImiS (unknown origin) expressed in Escherichia coli BL21 (DE3) cells using meropenem as substrate at 20 uM by spectrometric analysis relative to control
# [18] = Inhibition of recombinant serine beta lactamase KPC-2 (unknown origin) expressed in Escherichia coli BL21 (DE3) cells using meropenem as substrate by spectrometric analysis; set-up: species or system Bacteria
# [19] = test system: Escherichia coli; assay: Antibacterial activity against Escherichia coli harboring NDM-1 infected in Kunming mouse model assessed as reduction in bacterial load in spleen at 20 mg/kg, ip; type: functional, organism-based
# [20] = test system: Bacteria; assay: (§1) Destabilization of recombinant serine beta lactamase KPC-2 (unknown origin) expressed in Escherichia coli BL21 (DE3) cells assessed as thermal stabilization by measuring melting temperature at 50 uM incubated under 25 to 80 degreeC by SYPRO orange dye based thermal shift assay (reference value: 55.4 degreeC)
# [21] = test system: Bacteria; assay: as §1, with “Binding affinity to” for “Destabilization of”, “metallo-beta-lactamase IMP-1” for “serine beta lactamase KPC-2”, “measuring change in” for “measuring”, “71.9” for “55.4”
# [22] = target: Metallo-beta-lactamase type 2 (Bacteria, UniProt C7C422); assay: Inhibition of recombinant NDM-1 (unknown origin) expressed in Escherichia coli BL21 (DE3) cells using meropenem as substrate by spectrometric analysis
# Sequence of Metallo-beta-lactamase type 2 (C7C422 whole entry): as above
# [23] = test system: Escherichia coli; assay: Synergistic antibacterial activity against Escherichia coli clinical isolate 04 assessed as fold decrease in meropenem MIC at 64 microg/ml measured after 16 hrs by CLSI protocol based broth microdilution method; type: functional; settings: dose 64 µg/ml
# [24] = test system: Bacteria; assay: as §1, with “OXA-48” for “KPC-2”, “54.6” for “55.4”
# [25] = test system: Bacteria; assay: Inhibition of recombinant metallo-beta-lactamase IMP-1 (unknown origin) expressed in Escherichia coli BL21 (DE3) cells using cefazolin as substrate at 20 uM by spectrometric analysis relative to control
# [26] = test system: Escherichia coli; assay: Synergistic antibacterial activity against Escherichia coli BL21 (DE3) harboring serine beta lactamase KPC-2 assessed as decrease in bacterial colony at 128 microg/ml incubated for 12 hrs in presence of meropenem by imaging analysis; type: functional, organism-based; settings: dose 128.0 µg/ml
# [27] = test system: Escherichia coli; assay: Synergistic antibacterial activity against Escherichia coli BL21 (DE3) harboring metallo-beta lactamase IMP-1 assessed as fold decrease in meropenem MIC at 64 microg/ml measured after 16 hrs by CLSI protocol based broth microdilution method; type: functional; settings: dose 64 µg/ml
# [28] = test system: Escherichia coli; assay: Synergistic antibacterial activity against Escherichia coli harboring NDM-1 infected in Kunming mouse model assessed as reduction in bacterial load in liver at 20 mg/kg, ip co-administered with 10 mg/kg of meropenem; type: functional, organism-based
# [29] = test system: Escherichia coli; assay: Synergistic antibacterial activity against Escherichia coli clinical isolate 04 assessed as meropenem MIC at 64 microg/ml measured after 16 hrs by CLSI protocol based broth microdilution method (reference value: 256 microg/ml); type: functional; settings: dose 64 µg/ml
# [30] = test system: Escherichia coli; assay: Synergistic antibacterial activity against Escherichia coli clinical isolate 08 assessed as meropenem MIC at 64 microg/ml measured after 16 hrs by CLSI protocol based broth microdilution method (reference value: 128 microg/ml); type: functional; settings: dose 64 µg/ml
# [31] = Non-competitive inhibition of recombinant serine beta lactamase KPC-2 (unknown origin) expressed in Escherichia coli BL21 (DE3) cells using meropenem as substrate assessed as inhibition constant by Lineweaver-Burk plot analysis; set-up: species or system Bacteria
# [32] = test system: Escherichia coli; assay: Synergistic antibacterial activity against Escherichia coli assessed as meropenem MIC at 64 microg/ml measured after 16 hrs by CLSI protocol based broth microdilution method (reference value: 64 microg/ml); type: functional; settings: dose 64 µg/ml
smiles,measurement,setting,value
O=C(CCCc1ccccc1)NOC(=O)OCc1ccccc1,inhibition,[1],Dose-Dependent Effect
same,fold change (FC),[2],8
same,inhibition,[3],> 90%
same,MIC,[4],128 µg/mL
same,Activity,[5],< 10%
same,inhibition,[6],Dose-Dependent Effect
same,Activity,[7],Active
same,Activity,[8],< 10%
same,inhibition,[9],Active
same,inhibition,[10],Dose-Dependent Effect
same,inhibition,[11],Tde
same,fold change (FC),[12],2
same,Activity,[13],Active
same,Activity,[14],Active
same,MIC,[15],16 µg/mL
same,inhibition,[16],> 90%
same,inhibition,[17],< 42%
same,IC50,[18],570 nM
same,Activity,[19],inactive
same,Tm,[20],51.4 °C
same,Tm,[21],74.3 °C
same,IC50,[22],640 nM
same,fold change (FC),[23],2
same,Tm,[24],53.9 °C
same,inhibition,[25],> 90%
same,Activity,[26],Active
same,fold change (FC),[27],4
same,Activity,[28],Active
same,MIC,[29],128 µg/mL
same,MIC,[30],64 µg/mL
same,Ki,[31],550 nM
same,MIC,[32],64 µg/mL
